How the values were obtained:
Cavia porcellus [1] = assay: […] effect in anesthetized guinea pig assessed as drug level inducing increase in dP/dtmax response; type: functional
Cavia porcellus [2] = assay: […] effect in anesthetized guinea pig assessed as increase in dP/dtmax response relative to control; type: functional
Cavia porcellus [3] = species: Cavia porcellus; assay: Ratio of toxic lethal dose to ED80 for inotropic activity in guinea pig; type: functional
Cavia porcellus [4] = assay: […] effect in anesthetized guinea pig assessed as drug level inducing maximun increase in dP/dtmax response relative to control; type: functional
[5] = Inhibition of dog kidney Na+,K+-ATPase by [32P]ATP hydrolysis method; design: species or system Canis lupus familiaris
Cavia porcellus [6] = species: Cavia porcellus; assay: Toxicity in guinea pig assessed as induction of death; type: organism-based; conditions: in vivo

For `C[C@]12CCC(=NO[C@@H]3CCNC3)C[C@@H]1C(=O)C[C@@H]1[C@@H]2CC[C@]2(C)C(=O)CC[C@@H]12`, which ED80 (Cavia porcellus [1]) is on record?
Its ED80 is 2.01 µmol/kg.

And the Emax (Cavia porcellus [2])?
The Emax was 223%.

And the Ratio (Cavia porcellus [3])?
Its Ratio is 12.

And the Activity (Cavia porcellus [4])?
Its Activity is 8.09 µmol/kg.

What about the IC50 [5] of the same molecule?
Its IC50 is 26 nM.

With `CC12CCC3C(CC(=O)C4CC(=NOCCN)CCC43C)C1CCC2=O` (configuration not stated) as the molecule, how does the ED80 (Cavia porcellus [1]) read?
The ED80 was 1.82 µmol/kg.

And the Emax (Cavia porcellus [2])?
The Emax was 182%.

What about the Ratio (Cavia porcellus [3]) of the same molecule?
The Ratio was 25.6.

And the Activity (Cavia porcellus [4])?
Its Activity is 5.74 µmol/kg.

And the IC50 [5]?
Its IC50 is 110 nM.

With `CCCON=C1CC[C@@]2(C)[C@H](C1)C(=O)C[C@@H]1[C@@H]2CC[C@]2(C)C(=O)CC[C@@H]12` as the molecule, how does the ED80 (Cavia porcellus [1]) read?
The ED80 was 1.03 µmol/kg.

What about the Emax (Cavia porcellus [2]) of the same molecule?
The Emax was 260%.

And the Ratio (Cavia porcellus [3])?
The Ratio was 20.8.

What about the Activity (Cavia porcellus [4]) of the same molecule?
The Activity was 6.79 µmol/kg.

What about the IC50 [5] of the same molecule?
Its IC50 is 56 nM.

What about the Activity (Cavia porcellus [6]) of the same molecule?
Its Activity is “Toxic”.

For `C[C@]12CC/C(=N/OC3CNC3)C[C@@H]1C(=O)C[C@@H]1[C@@H]2CC[C@]2(C)C(=O)CC[C@@H]12`, which IC50 [5] is on record?
Its IC50 is 100 nM.

For `C[C@H](N)CO/N=C1/CC[C@@]2(C)[C@H](C1)C(=O)C[C@@H]1[C@@H]2CC[C@]2(C)C(=O)CC[C@@H]12`, which IC50 [5] is on record?
Its IC50 is 370 nM.

With `C[C@@H](N)CO/N=C1/CC[C@@]2(C)[C@H](C1)C(=O)C[C@@H]1[C@@H]2CC[C@]2(C)C(=O)CC[C@@H]12` as the molecule, how does the IC50 [5] read?
Its IC50 is 380 nM.

Which IC50 [5] does the source give for `CNCCO/N=C1/CC[C@@]2(C)[C@H](C1)C(=O)C[C@@H]1[C@@H]2CC[C@]2(C)C(=O)CC[C@@H]12` here?
Its IC50 is 690 nM.

For `CNCCCO/N=C1/CC[C@@]2(C)[C@H](C1)C(=O)C[C@@H]1[C@@H]2CC[C@]2(C)C(=O)CC[C@@H]12`, which IC50 [5] is on record?
Its IC50 is 230 nM.

Which IC50 [5] does the source give for `CN1CC[C@H](O/N=C2/CC[C@@]3(C)[C@H](C2)C(=O)C[C@@H]2[C@@H]3CC[C@]3(C)C(=O)CC[C@@H]23)C1` here?
Its IC50 is 40500 nM.

For `CN1CC[C@@H](O/N=C2/CC[C@@]3(C)[C@H](C2)C(=O)C[C@@H]2[C@@H]3CC[C@]3(C)C(=O)CC[C@@H]23)C1`, which IC50 [5] is on record?
Its IC50 is 1300 nM.

With `C[C@]12CC/C(=N/OCCN)C[C@@H]1C(=O)C[C@@H]1[C@@H]2CC[C@]2(C)C(=O)CC[C@@H]12` as the molecule, how does the ED80 (Cavia porcellus [1]) read?
The ED80 was 3.36 µmol/kg.

What about the Emax (Cavia porcellus [2]) of the same molecule?
The Emax was 235%.

What about the Ratio (Cavia porcellus [3]) of the same molecule?
The Ratio was 22.5.

What about the Activity (Cavia porcellus [4]) of the same molecule?
Its Activity is 12.1 µmol/kg.

What about the IC50 [5] of the same molecule?
The IC50 was 630 nM.

With `CC(C)(N)CO/N=C1/CC[C@@]2(C)[C@H](C1)C(=O)C[C@@H]1[C@@H]2CC[C@]2(C)C(=O)CC[C@@H]12` as the molecule, how does the IC50 [5] read?
The IC50 was 28500 nM.

Which IC50 [5] does the source give for `C[C@]12CC/C(=N/OCCCCN)C[C@@H]1C(=O)C[C@@H]1[C@@H]2CC[C@]2(C)C(=O)CC[C@@H]12` here?
Its IC50 is 1800 nM.

For `C[C@]12CC/C(=N/O[C@H]3CCNC3)C[C@@H]1C(=O)C[C@@H]1[C@@H]2CC[C@]2(C)C(=O)CC[C@@H]12`, which IC50 [5] is on record?
The IC50 was 240 nM.

With `C[C@]12CC/C(=N/O[C@@H]3CCNC3)C[C@@H]1C(=O)C[C@@H]1[C@@H]2CC[C@]2(C)C(=O)CC[C@@H]12` as the molecule, how does the ED80 (Cavia porcellus [1]) read?
Its ED80 is 27.7 µmol/kg.

What about the Emax (Cavia porcellus [2]) of the same molecule?
The Emax was 114%.

And the Ratio (Cavia porcellus [3])?
The Ratio was >3.6.

And the Activity (Cavia porcellus [4])?
Its Activity is 43.5 µmol/kg.

And the IC50 [5]?
Its IC50 is 250 nM.

And the Activity (Cavia porcellus [6])?
Its Activity is “Non-toxic”.

With `CC(C)(CN)O/N=C1/CC[C@@]2(C)[C@H](C1)C(=O)C[C@@H]1[C@@H]2CC[C@]2(C)C(=O)CC[C@@H]12` as the molecule, how does the IC50 [5] read?
Its IC50 is 21 nM.

With `C[C@]12CC/C(=N\OC3CCNCC3)C[C@@H]1C(=O)C[C@@H]1[C@@H]2CC[C@]2(C)C(=O)CC[C@@H]12` as the molecule, how does the IC50 [5] read?
Its IC50 is 1100 nM.

With `C[C@]12CC/C(=N/O[C@@H]3CCNC3)C[C@@H]1[C@@H](O)C[C@@H]1[C@@H]2CC[C@]2(C)C(=O)CC[C@@H]12` as the molecule, how does the ED80 (Cavia porcellus [1]) read?
Its ED80 is 1.64 µmol/kg.

And the Emax (Cavia porcellus [2])?
The Emax was 216%.

What about the Ratio (Cavia porcellus [3]) of the same molecule?
Its Ratio is 21.

And the Activity (Cavia porcellus [4])?
Its Activity is 9.62 µmol/kg.

What about the IC50 [5] of the same molecule?
Its IC50 is 220 nM.

For `C[C@]12CC/C(=N/O[C@@H]3CCNC3)C[C@@H]1[C@H](O)C[C@@H]1[C@@H]2CC[C@]2(C)C(=O)CC[C@@H]12`, which ED80 (Cavia porcellus [1]) is on record?
Its ED80 is 3.92 µmol/kg.

And the Emax (Cavia porcellus [2])?
Its Emax is 256%.

And the Ratio (Cavia porcellus [3])?
The Ratio was 49.1.

What about the Activity (Cavia porcellus [4]) of the same molecule?
The Activity was 44.8 µmol/kg.

What about the IC50 [5] of the same molecule?
Its IC50 is 850 nM.

What about the Activity (Cavia porcellus [6]) of the same molecule?
Its Activity is “Toxic”.

With `CNCCCO/N=C1/CC[C@@]2(C)[C@H](C1)C(O)C[C@@H]1[C@@H]2CC[C@]2(C)C(=O)CC[C@@H]12` (some centres not stated) as the molecule, how does the Emax (Cavia porcellus [2]) read?
Its Emax is 77%.

And the Ratio (Cavia porcellus [3])?
Its Ratio is <17.

And the Activity (Cavia porcellus [4])?
The Activity was 8.95 µmol/kg.

And the IC50 [5]?
Its IC50 is 920 nM.

And the Activity (Cavia porcellus [6])?
Its Activity is “Toxic”.

For `C[C@]12CC/C(=N/O[C@H]3CCNC3)C[C@@H]1[C@@H](O)C[C@@H]1[C@@H]2CC[C@]2(C)C(=O)CC[C@@H]12`, which IC50 [5] is on record?
The IC50 was 910 nM.

What does the source list for `C[C@]12CC/C(=N\O[C@@H]3CCNC3)C[C@@H]1C(=O)C[C@@H]1[C@@H]2CC[C@]2(C)C(=O)CC[C@@H]12`?
ED80 (Cavia porcellus [1]): 0.75 µmol/kg; Emax (Cavia porcellus [2]): 186%; Ratio (Cavia porcellus [3]): 8; Activity (Cavia porcellus [4]): 2.65 µmol/kg; IC50 [5]: 16 nM; Activity (Cavia porcellus [6]): Toxic

With `C[C@]12CC/C(=N/OCCNC(=N)N)C[C@@H]1C(=O)C[C@@H]1[C@@H]2CC[C@]2(C)C(=O)CC[C@@H]12` as the molecule, how does the IC50 [5] read?
Its IC50 is 12000 nM.

With `C[C@]12CC/C(=N\OC[C@@H]3CCCN3)C[C@@H]1C(=O)C[C@@H]1[C@@H]2CC[C@]2(C)C(=O)CC[C@@H]12` as the molecule, how does the IC50 [5] read?
Its IC50 is 11000 nM.

For `C[C@]12CC/C(=N\OC[C@H]3CCCN3)C[C@@H]1C(=O)C[C@@H]1[C@@H]2CC[C@]2(C)C(=O)CC[C@@H]12`, which IC50 [5] is on record?
The IC50 was 23000 nM.

Which IC50 [5] does the source give for `C[C@]12CC/C(=N\OC3CCCNC3)C[C@@H]1C(=O)C[C@@H]1[C@@H]2CC[C@]2(C)C(=O)CC[C@@H]12` (mixture of isomers) here?
The IC50 was 33000 nM.

Which ED80 (Cavia porcellus [1]) does the source give for `C[C@H]1O[C@@H](O[C@H]2[C@@H](O)C[C@H](O[C@H]3[C@@H](O)C[C@H](O[C@H]4CC[C@@]5(C)[C@H](CC[C@@H]6[C@@H]5C[C@@H](O)[C@]5(C)[C@@H](C7=CC(=O)OC7)CC[C@]65O)C4)O[C@@H]3C)O[C@@H]2C)C[C@H](O)[C@@H]1O` [DIGOXIN] here?
Its ED80 is 0.41 µmol/kg.

What about the Emax (Cavia porcellus [2]) of the same molecule?
Its Emax is 127%.

And the Ratio (Cavia porcellus [3])?
Its Ratio is 3.2.

And the Activity (Cavia porcellus [4])?
Its Activity is 0.97 µmol/kg.

And the IC50 [5]?
The IC50 was 220 nM.

And the Activity (Cavia porcellus [6])?
Its Activity is “Toxic”.

— ChEMBL document CHEMBL1155894, “Novel analogues of istaroxime, a potent inhibitor of Na+,K+-ATPase: synthesis and structure-activity relationship” (J Med Chem, 2008)
